Data as given in article PMC9640980, “Pharmacological evaluation of enantiomerically separated positive allosteric modulators of cannabinoid 1 receptor, GAT591 and GAT593” (Frontiers in Pharmacology, 2022).

Target: T1, hCB1R (Homo sapiens, UniProt P21554)
T1 construct: expressed in transfected cells; host or cells: CHO-K1 cell membranes
Test: [35S]GTPγS G protein coupling assay, membranes of CHO-K1 cells overexpressing hCB1R
Assay type: biochemical
Conditions: absence of orthosteric agonist, Figure 4B
Protocol: This assay was conducted as described in previous reports ([Garai et al., 2020]). To summarize, the assay was completed in the presence of [35S]GTPγS (0.1 nM), GDP (30 µM), GTPγS (30 µM) using membranes derived from CHO-K1 cells (1 mg/ml) overexpressing hCB1R. Assay buffer consisted of 50 mM Tris, 10 mM MgCl2, 100 mM NaCl, 0.2 mM EDTA and 1 mM dithiothreitol (DTT) at pH 7.4. Membranes were incubated at 30°C for 90 min in a total volume of […]. Reactions were ended by the addition of ice-cold wash buffer (50 mM Tris and 1 mg/ml BSA, pH 7.4) followed by rapid filtration under vacuum through pre-soaked Whatman GF/B glass-fibre filters in a 24-well sampling manifold (Brandel Cell Harvester; Brandel Inc., Gaithersburg, MD, United States). Reaction wells were washed six times with a 1.2 ml aliquots of Tris-binding buffer. Filters were subsequently oven-dried for 60 min and placed in 3 ml of scintillation fluid (Ultima Gold XR, PerkinElmer). Bound radioactivity was determined by liquid scintillation counting. Basal [35S]GTPγS binding was determined in the presence of […] GDP without any compounds present. Non-specific binding was determined in the presence of […] GTPγS.
(§1) Data related to EC50 and E max in Figures 3, 4 were obtained with nonlinear regression models (3-parameter model, GraphPad Prism 9.0, San Diego, CA). […] Significance was determined by one- or two-way ANOVA followed by Tukey’s or Bonferroni’s post-hoc test as indicated. p < 0.05 was considered significant and p values were only employed where ANOVA was used. Data related to Figure 5 was analyzed in GraphPad Prism 9.0 was used to analyze in vivo data and p < 0.05 was considered to be statistically significant. Data are expressed as mean ± SEM. Group sizes for all experiments are described in figure legends.

T1 sequence (P21554 whole entry): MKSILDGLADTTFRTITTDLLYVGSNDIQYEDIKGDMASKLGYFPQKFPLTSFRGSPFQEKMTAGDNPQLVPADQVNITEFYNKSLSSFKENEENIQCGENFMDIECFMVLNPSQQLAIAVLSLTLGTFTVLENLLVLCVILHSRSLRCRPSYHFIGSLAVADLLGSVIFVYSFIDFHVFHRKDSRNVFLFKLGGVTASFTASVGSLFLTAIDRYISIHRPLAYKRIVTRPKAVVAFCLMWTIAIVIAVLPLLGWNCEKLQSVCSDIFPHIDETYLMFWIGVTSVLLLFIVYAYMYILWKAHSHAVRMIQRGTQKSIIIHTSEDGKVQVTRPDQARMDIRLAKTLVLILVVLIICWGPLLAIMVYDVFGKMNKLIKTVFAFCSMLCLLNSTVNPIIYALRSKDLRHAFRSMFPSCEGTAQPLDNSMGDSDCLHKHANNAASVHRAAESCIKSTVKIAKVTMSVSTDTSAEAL

SMILES	Emax ± S.E.M., [35S]GTPγS binding, compound alone
O=[N+]([O-])CC(c1ccccc1F)c1c(-c2cccc(F)c2)[nH]c2cc(F)ccc12 (centres unmarked) [GAT1664]	38 ± 3.1 % stimulation above baseline
O=[N+]([O-])C[C@@H](c1ccccc1F)c1c(-c2cccc(F)c2)[nH]c2cc(F)ccc12 [GAT1665]	41 ± 4.2 % stimulation above baseline
O=[N+]([O-])CC(c1ccccc1F)c1c(-c2cccc(F)c2)[nH]c2c(F)cccc12 (centres unmarked) [GAT1666]	29 ± 2.6 % stimulation above baseline

Same assay, conditions: absence of orthosteric agonist, value (95% CI), Figure 4B; read-out: EC50 (nM) 95% C.I., [35S]GTPγS binding, compound alone

SMILES	EC50 [nM]
O=[N+]([O-])CC(c1ccccc1F)c1c(-c2cccc(F)c2)[nH]c2cc(F)ccc12 (centres unmarked) [GAT1664]	110
O=[N+]([O-])C[C@@H](c1ccccc1F)c1c(-c2cccc(F)c2)[nH]c2cc(F)ccc12 [GAT1665]	21
O=[N+]([O-])CC(c1ccccc1F)c1c(-c2cccc(F)c2)[nH]c2c(F)cccc12 (centres unmarked) [GAT1666]	120

Tested on: male C57BL/6 mice
Test: Triad assessment in mice: body temperature (rectal thermometer)
Assay type: in vivo, mouse
Conditions: 0.1, 1, 3, or 10 mg/kg i.p. compared to vehicle, male C57BL/6 mice, Figure 5B
Protocol: (§2) Male C57BL/6 mice (Charles River, Senneville, QC) between 4 and 7 months of age were used for these studies. Animals were group housed at the Laboratory Animal Services Unit (LASU) at the University of Saskatchewan (3-5 animals/cage) with a standard 12:12 light-dark cycle, ad libitum access to food and water, and environmental enrichment. Compounds administered intraperitoneally (i.p.) were prepared in vehicle [ethanol and cremophor in saline (1:1:8)]. Catalepsy was assessed in the bar holding assay 5 min after drug administration. Mice were placed so that their forepaws clasped a 0.7 cm ring clamp positioned 4.5 cm above the surface of the testing space ([Zagzoog et al., 2021]). The length of time the ring was held was recorded in seconds. The trial ended if the mouse turned its head or body or made 3 consecutive escape attempts to a maximum of 60 s. Body temperature was measured by rectal thermometer 15 min after drug administration. Anti-nociceptive effects were measured in the warm water (52 ± 2°C) tail-flick test 20 min after drug administration. Response in this case was defined by the removal of the tail from the warm water, with a maximal response time of 20 s. Catalepsy and tail flick data are presented as percent maximum possible effect (MPE). Compounds were administered at the doses indicated. Experimenters were blinded to treatment for all behavioral assessments and analyses. Animals were purchased, rather than bred, to reduce animal numbers. In all cases, experiments were performed with the approval of the University Animal Care Committee (UACC) at the University of Saskatchewan and are in keeping with the guidelines of the Canadian Council on Animal Care (CCAC) and the ARRIVE guidelines ([Kilkenny et al., 2010]).

SMILES	hypothermia, compound alone
O=[N+]([O-])CC(c1ccccc1F)c1c(-c2cccc(F)c2)[nH]c2cc(F)ccc12 (centres unmarked) [GAT1664]	did not produce
O=[N+]([O-])C[C@@H](c1ccccc1F)c1c(-c2cccc(F)c2)[nH]c2cc(F)ccc12 [GAT1665]	did not produce
O=[N+]([O-])CC(c1ccccc1F)c1c(-c2cccc(F)c2)[nH]c2c(F)cccc12 (centres unmarked) [GAT1666]	did not produce

Same assay, conditions: 3 and 10 mg/kg i.p. + sub-threshold 1 mg/kg THC, Figure 5E

SMILES	hypothermic effect, co-administered with THC
O=[N+]([O-])C[C@@H](c1ccccc1F)c1c(-c2cccc(F)c2)[nH]c2cc(F)ccc12 [GAT1665]	significant

Target: T2, human CB1R (hCB1R) (Homo sapiens, UniProt P21554)
T2 construct: host or cells: CHO-K1 (PathHunter βarrestin2 line)
Test: PathHunter βarrestin2 recruitment assay in hCB1R CHO-K1 cells
Assay type: cell-based
Conditions: as PAMs, 100 nM CP55,940
Protocol: (§3) HitHunter (cAMP) and PathHunter (βarrestin2) Chinese hamster ovary (CHO)-K1 cells stably-expressing human CB1R (hCB1R) from DiscoveRx (Eurofins, Freemont, CA) were maintained at 37°C, 5% CO2 in DMEM/F-12 containing 10% fetal bovine serum (FBS) and 5 U × 10^4 U penicillin/streptomycin (ThermoFisher, Mississauga, ON). In addition, 800 μg/ml geneticin was used for CHO-K1 hCB1R HitHunter cAMP cells and 800 μg/ml geneticin and 300 μg/ml hygromycin B was used for CHO-K1 hCB1R PathHunter βarrestin2 cells.
βarrestin2 recruitment was determined using the hCB1R CHO-K1 cell PathHunter assay (DiscoveRx). Cells (16,000 cells/well in 96 well plates) were incubated overnight in Opti-MEM (Invitrogen) containing 1% FBS at 37°C and 5% CO2. Cells were then simultaneously treated with experimental compounds (0.10 nM–10 µM) for 90 min. Detection solution was added to cells according to the manufacturer’s protocol (DiscoveRx), and cells were incubated for 60 min at room temperature. Chemiluminescence was measured on a Cytation5 plate reader (top read, gain 200, integration time 10 s).
as §1

T2 sequence (P21554 whole entry): as above

SMILES	activity in the βarrestin2 recruitment assay as PAM, in words
O=[N+]([O-])CC(c1ccccc1F)c1c(-c2cccc(F)c2)[nH]c2cc(F)ccc12 (centres unmarked) [GAT1664]	no activity
O=[N+]([O-])CC(c1ccccc1F)c1c(-c2cccc(F)c2)[nH]c2c(F)cccc12 (centres unmarked) [GAT1666]	no activity

Same assay, conditions: as agonist (and PAM where stated), Figures 3B,D

SMILES	βarrestin2 recruitment to hCB1R, in words
O=[N+]([O-])CC(c1ccccc1F)c1c(-c2cccc(F)c2)[nH]c2cc(F)ccc12 (centres unmarked) [GAT1664]	did not recruit βarrestin2
O=[N+]([O-])C[C@@H](c1ccccc1F)c1c(-c2cccc(F)c2)[nH]c2cc(F)ccc12 [GAT1665]	recruited βarrestin2 as low-potency agonists and PAMs
O=[N+]([O-])CC(c1ccccc1F)c1c(-c2cccc(F)c2)[nH]c2c(F)cccc12 (centres unmarked) [GAT1666]	weak ability

Same assay, conditions: compound alone, hCB1R CHO-K1, 90 min, value (95% CI), Figure 3B; read-out: EC50 (nM) 95% C.I., βarrestin2 recruitment as agonist

SMILES	EC50 [nM]
O=[N+]([O-])CC(c1ccccc1F)c1c(-c2cccc(F)c2)[nH]c2cc(F)ccc12 (centres unmarked) [GAT1664]	> 10000
O=[N+]([O-])C[C@@H](c1ccccc1F)c1c(-c2cccc(F)c2)[nH]c2cc(F)ccc12 [GAT1665]	> 10000
O=[N+]([O-])CC(c1ccccc1F)c1c(-c2cccc(F)c2)[nH]c2c(F)cccc12 (centres unmarked) [GAT1666]	> 10000

Target: T1, hCB1R
Test: [3H]CP55,940 radioligand binding to hCB1R CHO-K1 cell membranes
Conditions: not given
Protocol: The assay began with the addition of transfected hCB1R CHO-K1 cell membranes (25 µg protein per well). The assays were left to equilibrate at room temperature for 2 h before vacuum filtration using a Millipore Sigma 12-well sampling manifold and filter paper that had been soaked in wash buffer. Each reaction well was washed 3 times with a 2 ml aliquot of Tris-binding buffer. The filters were removed then submerged in 5 ml of scintillation fluid (Ultima Gold F, PerkinElmer, Buckinghamshire, United Kingdom). Radioactivity was quantified by liquid scintillation spectrometry.
as §1

SMILES	EC50 [nM]
O=[N+]([O-])CC(c1ccccc1F)c1c(-c2cccc(F)c2)[nH]c2cc(F)ccc12 (centres unmarked) [GAT1664]	110
O=[N+]([O-])C[C@@H](c1ccccc1F)c1c(-c2cccc(F)c2)[nH]c2cc(F)ccc12 [GAT1665]	140
O=[N+]([O-])CC(c1ccccc1F)c1c(-c2cccc(F)c2)[nH]c2c(F)cccc12 (centres unmarked) [GAT1666]	140

Same assay, conditions: 1 nM [3H]CP55,940, Figure 4A

SMILES	Emax ± S.E.M., [3H]CP55,940 bound [% radioligand bound]
O=[N+]([O-])CC(c1ccccc1F)c1c(-c2cccc(F)c2)[nH]c2cc(F)ccc12 (centres unmarked) [GAT1664]	140 ± 7.0
O=[N+]([O-])C[C@@H](c1ccccc1F)c1c(-c2cccc(F)c2)[nH]c2cc(F)ccc12 [GAT1665]	190 ± 8.5
O=[N+]([O-])CC(c1ccccc1F)c1c(-c2cccc(F)c2)[nH]c2c(F)cccc12 (centres unmarked) [GAT1666]	140 ± 6.1

Tested on: male C57BL/6 mice
Test: Triad assessment in mice: nociception (warm water tail-flick test)
Assay type: in vivo, mouse
Conditions: 0.1, 1, 3, or 10 mg/kg i.p. compared to vehicle, male C57BL/6 mice, Figure 5C
Protocol: as §2

SMILES	anti-nociceptive effects (tail flick), compound alone
O=[N+]([O-])CC(c1ccccc1F)c1c(-c2cccc(F)c2)[nH]c2cc(F)ccc12 (centres unmarked) [GAT1664]	did not produce
O=[N+]([O-])C[C@@H](c1ccccc1F)c1c(-c2cccc(F)c2)[nH]c2cc(F)ccc12 [GAT1665]	did not produce
O=[N+]([O-])CC(c1ccccc1F)c1c(-c2cccc(F)c2)[nH]c2c(F)cccc12 (centres unmarked) [GAT1666]	did not produce

Same assay, conditions: 3 and 10 mg/kg i.p. + sub-threshold 1 mg/kg THC, Figure 5F

SMILES	anti-nociceptive effect (tail flick), co-administered with THC
O=[N+]([O-])C[C@@H](c1ccccc1F)c1c(-c2cccc(F)c2)[nH]c2cc(F)ccc12 [GAT1665]	significant

Tested on: male C57BL/6 mice
Test: Triad assessment in mice: catalepsy (bar holding assay)
Assay type: in vivo, mouse
Conditions: 0.1, 1, 3, or 10 mg/kg i.p. compared to vehicle, male C57BL/6 mice, Figure 5A
Protocol: as §2

SMILES	catalepsy, compound alone
O=[N+]([O-])CC(c1ccccc1F)c1c(-c2cccc(F)c2)[nH]c2cc(F)ccc12 (centres unmarked) [GAT1664]	did not produce
O=[N+]([O-])C[C@@H](c1ccccc1F)c1c(-c2cccc(F)c2)[nH]c2cc(F)ccc12 [GAT1665]	did not produce
O=[N+]([O-])CC(c1ccccc1F)c1c(-c2cccc(F)c2)[nH]c2c(F)cccc12 (centres unmarked) [GAT1666]	did not produce

Same assay, conditions: 3 and 10 mg/kg i.p. + sub-threshold 1 mg/kg THC, Figure 5D

SMILES	cataleptic effect, co-administered with THC
O=[N+]([O-])C[C@@H](c1ccccc1F)c1c(-c2cccc(F)c2)[nH]c2cc(F)ccc12 [GAT1665]	significant

Target: T2, human CB1R (hCB1R)
Test: HitHunter cAMP inhibition assay in hCB1R CHO-K1 cells (10 µM forskolin)
Assay type: cell-based
Conditions: 100 nM CP55,940 + compound, value (95% CI), Figure 3C; read-out: EC50 (nM) 95% C.I., cAMP inhibition as PAM
Protocol: as §3
cAMP inhibition was performed in the presence of 10 µM forskolin (FSK) using the DiscoveRx HitHunter assay in hCB1R CHO-K1 cells. Cells (16,000 cells/well in 96 well plates) were incubated overnight in Opti-MEM (Invitrogen) containing 1% FBS at 37°C and 5% CO2. Opti-MEM media was removed and replaced with cell assay buffer (DiscoveRx) and then cells were simultaneously treated with 10 µM FSK and experimental compounds (0.10 nM–10 µM) for 90 min cAMP antibody solution and working detection solutions were added according to the manufacturer’s protocol (DiscoveRx), and cells were incubated for 60 min at room temperature. cAMP solution A was added according to the manufacturer’s protocol (DiscoveRx) and cells were incubated for an additional 60 min at room temperature before chemiluminescence was measured on a Cytation5 plate reader (top read, gain 200, integration time 10 s).
as §1

SMILES	EC50 [nM]
O=[N+]([O-])CC(c1ccccc1F)c1c(-c2cccc(F)c2)[nH]c2cc(F)ccc12 (centres unmarked) [GAT1664]	29
O=[N+]([O-])C[C@@H](c1ccccc1F)c1c(-c2cccc(F)c2)[nH]c2cc(F)ccc12 [GAT1665]	8.6
O=[N+]([O-])CC(c1ccccc1F)c1c(-c2cccc(F)c2)[nH]c2c(F)cccc12 (centres unmarked) [GAT1666]	270

Same assay, conditions: compound alone, hCB1R CHO-K1, 90 min, value (95% CI), Figure 3A; read-out: EC50 (nM) 95% C.I., cAMP inhibition as agonist

SMILES	EC50 [nM]
O=[N+]([O-])CC(c1ccccc1F)c1c(-c2cccc(F)c2)[nH]c2cc(F)ccc12 (centres unmarked) [GAT1664]	2.8
O=[N+]([O-])C[C@@H](c1ccccc1F)c1c(-c2cccc(F)c2)[nH]c2cc(F)ccc12 [GAT1665]	1.1
O=[N+]([O-])CC(c1ccccc1F)c1c(-c2cccc(F)c2)[nH]c2c(F)cccc12 (centres unmarked) [GAT1666]	1.3
